Data published in US20090305954A1, “HISTIDINE-CONTAINING DIASTEREOMERIC PEPTIDES AND USES THEREOF” (Yeda Research and Development Co. Ltd., priority 2005, published 2009).
In brackets after ≈: the same amount, converted by molar mass. Like-named read-outs stand apart in the source and are kept apart here. Square brackets hold non-standard residues; d marks the D form. Peptide text beside a SMILES is read from it.

How the values were obtained:
[1] = XTT proliferation (cytotoxicity) assay, normal fibroblasts; format: cell-based, mouse; conditions: mouse, NIH-3T3 normal mouse fibroblasts, read-out: Lethal Concentration (LC50)
Experimental: (§1) The CL1 human prostate carcinoma (PC) cell line is an androgen-independent (AI) subclone of LNCaP cell line, which was generated by culturing androgen-dependent (AD) LNCaP cells in charcoal-stripped, […], as described (Patel et al. 2000). 22RV1 human PC cells are AI sub-clones of the AD prostatic adenocarcinoma CWR22 xenograft (Sramkoski et al. 1999). CL1 and 22RV1 (ATCC, USA) were grown in RPMI-1640 supplemented with 10% FCS (Biological Industries, Beit Haemek, Israel). PC3 and DU145 are androgen-insensitive (AI) (non-responsive), invasive human prostate cancer cell lines. NIH-3T3 mouse fibroblast cell lines (ATCC, USA) were grown in DMEM supplemented with 10% BS. Murine Lewis lung carcinoma (LLC) cell lines were also grown in DMEM medium supplemented with 10% fetal calf serum and antibiotics under the same conditions as above.
The anticancer activity of the diastereomers 1, 5 and 11-16, 36-39, 42 and 44 was examined against human CL1 prostate cancer, murine LLC (Lewis lung carcinoma), DU 145 and PC3 cell lines. The cell selectivity of the diastereomeric peptides was also studied by examining their effect on NIH-3T3 normal mouse fibroblasts cell line.
(§2) A 96-well plate (Falcon) was used for the XTT proliferation assay. Cancer cells were grown for 24 hours (day 1) in RPMI-1640 medium ([…] cells/100 μl for LLC, CL1, 22RVI, DU 145 and PC3, respectively) supplemented with 10% fetal calf serum and antibiotics, at 37° C., in humidified atmosphere at 5% CO2 and 95% air, resulting in growth medium pH of 7.4. NIH-3T3 fibroblast cells (1×10^4 cells/100 μl) were grown in DMEM medium supplemented with 10% bovine calf serum and antibiotics under the same conditions as described above for the cancerous cells. Wells in the last two rows served as blanks (medium only, for measuring the background color of the medium) and 100% survival controls (cells and medium only without treatment), respectively.
(§3) In day 2, the peptides were dissolved in sterile PBS to a concentration of 200 μM (or 500 μM). The medium in the assay wells was replaced with 100 μl serum free medium. For the assays at pH 6, the medium was initially concentrated (×5 or ×10) and then diluted with double distilled water and addition of sodium carbonate. Before reaching the correct dilution, the medium was adjusted to pH 6 and then more water was added to reach the final dilution. The cells were grown in physiological pH, and the acidic pH was used only during the 24 hours incubation with the peptides. A sign for the correct acidity was a light yellow color of the medium. In line A of the plate, 160 μl of serum free medium was added, if the initial peptide concentration was 500 μM.
(§4) Peptide solutions, 100 μl (or 40 μl) were added to each assay well in line A, such that the final concentration of the peptide was […] and the volume 200 μl. The medium in the wells was mixed with multichannel pipette 5 times and 100 μl of it were transferred to the next row of wells (line B), to give a peptide concentration of 50 μM. The double dilution of the peptides continued downstream the plate in the same manner. The plates were then incubated for 24 h.
In day 3, XTT reaction solution was prepared by adding to 100 μl aliquots of activation solution (sodium 3′-[1-(phenyl-aminocarbonyl)-3,4-tetrazolium]-bis(4-methoxy-6-nitro) benzene sulfonic acid hydrate and N-methyl dibenzopyrazine methyl sulfate; mixed in a proportion of 50:1) (protected from light and kept in −20° C.), the substrate. 50 μl of XTT reaction solution were added to each well and the plates were incubated for 2 hours (37° C. and 5% CO2+95% air. In cases the incubation was not enough for the creation of the color, it was extended for up to 24 hours). The optical density was read at wavelength of 450 nm in an ELISA plate reader. Cell viability was determined relative to the control and final results were recorded. The results were confirmed using replications in at least three independent experiments. […]

[2] = system: pepsin, trypsin, and elastase; experiment: Resistance to proteolytic digestion (reverse-phase HPLC); format: in vitro ADME; conditions: after 2 hr, 140 μM peptide, 25 μM protease, 37° C.
Experimental: In order to reach their target, the diastereomers have to withstand proteolytic digestion of proteases, which may occur after their administration and during the time until they reach the target site. The susceptibility of the peptides 13 and 14 to proteolytic digestion by pepsin (from porcine stomach mucosa, Sigma), trypsin (from bovine pancreas, Sigma), and elastase (from human leukocytes, Sigma) was assessed by reverse-phase HPLC. As a negative control, the all L-amino acid analog peptides were used. Equal amounts of the peptides were dissolved in PBS (35 mM phosphate buffer/0.15 M NaCl, pH 7.3) at a final concentration of 140 μM, to which 25 μM of protease were added. […] After the addition of the appropriate protease inhibitor to stop the reaction, aliquots were injected to C18 column and the amounts of the intact peptides 13 and 14 and their all L analogs were evaluated using their absorbance at 215 nm.

[3] = system: RFP-MDA-MB-231 breast cancer (BC) cells xenograft; experiment: Inhibition of tumor growth in breast cancer xenografts; format: in vivo, female SCID/NCr mice
Experimental: RFP-MDA-MB-231 breast cancer (BC) cells were injected (5×10^6 cells in 0.1 ml PBS) into the left mammary fat pad of 8-week-old female SCID/NCr mice (NCI, USA) as previously described ([…] et al., 2004). […] Mice were weighed and tumor volume was measured by a caliper (expressed in weight units (mg) (Papo et al., 2003) twice a week for a period of 45 days. Monitoring of solid breast tumor and its derived metastases was done by in vivo fluorescence. Tumor fluorescence intensity was monitored in real time by using in vivo optical imaging system (IVIS) and was recorded once a week during the period of 38 days.

22RV1 human PC cells = experiment: XTT proliferation (cytotoxicity) assay, 22RV1; format: cell-based
Experimental: as §1, §2, §3, §4
In day 3, XTT reaction solution was prepared by adding to 100 μl aliquots of activation solution (sodium 3′-[1-(phenyl-aminocarbonyl)-3,4-tetrazolium]-bis(4-methoxy-6-nitro) benzene sulfonic acid hydrate and N-methyl dibenzopyrazine methyl sulfate; mixed in a proportion of 50:1) (protected from light and kept in −20° C.), the substrate. 50 μl of XTT reaction solution were added to each well and the plates were incubated for 2 hours (37° C. and 5% CO2+95% air. In cases the incubation was not enough for the creation of the color, it was extended for up to 24 hours). The optical density was read at wavelength of 450 nm in an ELISA plate reader. Cell viability was determined relative to the control and final results were recorded. The results were confirmed using replications in at least three independent experiments. The LC50 for each peptide was obtained from the curve of cell viability versus concentration of peptide and taken from the concentration at which cell viability was 50%. The data shown in Table 1 are for only one experiment, but representative of all replications.

[4] = 5 mg/kg systemically, three times a week, 9 doses

## CC(C)C[C@H](NC(=O)[C@H](CC(C)C)NC(=O)[C@@H](CCCCN)NC(=O)[C@H](CC(C)C)NC(=O)[C@H](CC(C)C)NC(=O)[C@H](Cc1c[nH]cn1)NC(=O)[C@@H](CCCCN)NC(=O)[C@@H](CC(C)C)NC(=O)[C@H](CC(C)C)NC(=O)[C@@H](CCCCN)NC(=O)[C@H](Cc1c[nH]cn1)NC(=O)[C@H](CC(C)C)NC(=O)[C@@H](CC(C)C)NC(=O)[C@H](CCCCN)NC(=O)[C@@H](N)CC(C)C)C(N)=O [Peptide 13] (H-LK[dL]LH[dK]L[dL][dK]HLL[dK]LL-NH2)
[1]; NIH3T3, pH 6, 24 h
  CC50 at 24 h: 19 µg/mL (≈ 10.4 µM)
[1]; NIH3T3, pH 7.4, 24 h
  CC50 at 24 h: 50 µg/mL (≈ 27.4 µM)
[2]
  proteases digestion: ~50%
[3]; [4]
  tumor fluorescence (IVIS): marked lowering
  tumor size (caliper measurements): major reduction
[3]; mouse, in vivo
  body weight of the animals compared with vehicle-treated control group: increase
[3]; throughout the assay period
  condition of animals: good condition
22RV1 human PC cells; 22RV1, pH 6, 24 h
  Lethal Concentration (LC50): 12.5 µg/mL
22RV1 human PC cells; 22RV1, pH 7.4, 24 h
  Lethal Concentration (LC50): 12.5 µg/mL
